The structures appear in SMILES notation. pIC50, pKi: −log10 of the molar value.

The target of the first experiment is T1, Tyrosine-protein phosphatase non-receptor type 1 (Homo sapiens, UniProt P18031).
T1 sequence (P18031 whole entry): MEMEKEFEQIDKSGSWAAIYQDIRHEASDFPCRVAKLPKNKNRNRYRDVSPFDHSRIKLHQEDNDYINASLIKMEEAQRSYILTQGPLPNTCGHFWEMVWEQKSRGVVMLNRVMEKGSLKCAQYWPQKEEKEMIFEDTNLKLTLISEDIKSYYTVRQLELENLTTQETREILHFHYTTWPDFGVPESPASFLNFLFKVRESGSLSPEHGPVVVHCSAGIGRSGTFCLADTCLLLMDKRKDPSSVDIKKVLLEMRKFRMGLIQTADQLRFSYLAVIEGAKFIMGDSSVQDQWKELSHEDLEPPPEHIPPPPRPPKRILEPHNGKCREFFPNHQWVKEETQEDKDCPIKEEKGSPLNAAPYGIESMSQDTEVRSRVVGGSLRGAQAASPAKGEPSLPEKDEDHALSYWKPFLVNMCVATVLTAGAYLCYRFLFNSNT
Put plainly: Binding affinity towards recombinant human Protein-tyrosine phosphatase 1B was determined.
As a reminder, the pKi is the negative decadic logarithm of the Ki, by convention in mol/L. In the case of `CS(=O)(=O)NC(=O)c1ccc2cc(C(F)(F)P(=O)(O)O)ccc2c1`, the pKi is 4.77.

The target in a further experiment is T1, Tyrosine-protein phosphatase non-receptor type 1. Put plainly: Inhibitory concentration towards recombinant human Protein-tyrosine phosphatase 1B was determined.
What is called pIC50 is the IC50 on a negative log10 scale, so that one unit is a factor of ten. Turning to `C[C@@H]1CCC[C@H](C)N1NC(=O)c1ccc(Cl)c(S(=O)(=O)NC(=O)c2ccc3cc(C(F)(F)P(=O)(O)O)ccc3c2)c1`, the pIC50 was 4.72.

In the case of `O=C(NS(=O)(=O)Cc1ccccc1)c1ccc2cc(C(F)(F)P(=O)(O)O)ccc2c1`, the pIC50 was 4.62. Still for that read-out and setting: the result for `O=C(NS(=O)(=O)c1cc(C2(O)NC(=O)c3ccccc32)ccc1Cl)c1ccc2cc(C(F)(F)P(=O)(O)O)ccc2c1` (stereo not given) reads 4.60. On the same count and under the same terms, the result for `O=C(NS(=O)(=O)c1ccccc1)c1ccc2cc(C(F)(F)P(=O)(O)O)ccc2c1` reads 4.52; that for `CS(=O)(=O)NC(=O)c1ccc2cc(C(F)(F)P(=O)(O)O)ccc2c1`, 4.39; that for `CCN1CCCC1CNC(=O)c1cc(S(=O)(=O)NC(=O)c2ccc3cc(C(F)(F)P(=O)(O)O)ccc3c2)ccc1OC` (stereo not given), 4.34. The same measure, in the same setting: the result for `CC1Cc2ccccc2N1NC(=O)c1ccc(Cl)c(S(=O)(=O)NC(=O)c2ccc3cc(C(F)(F)P(=O)(O)O)ccc3c2)c1` (stereo not given) reads 4.70; that for `CCCCCCCCCCCCCCCCOc1ccc(S(=O)(=O)NC(=O)c2ccc3cc(C(F)(F)P(=O)(O)O)ccc3c2)cc1[N+](=O)[O-]`, 6.46; that for `CCCCCCCCCC(=O)Nc1ccc(S(=O)(=O)NC(=O)c2ccc3cc(C(F)(F)P(=O)(O)O)ccc3c2)cc1`, 4.74.
